Source: article PMC4451461, “SimC7 Is a Novel NAD(P)H-Dependent Ketoreductase Essential for the Antibiotic Activity of the DNA Gyrase Inhibitor Simocyclinone” (Journal of Molecular Biology, 2015)

Tests used:
Assay type in all cases: biochemical
[1] = target: T1, DNA gyrase subunit A (GyrA) (Escherichia coli, UniProt P0AES4); test: DNA gyrase supercoiling inhibition; SPR showed only weak, non-specific binding to GyrA; set-up: DNA gyrase; with GyrB
Target sequence in this assay (P0AES4 2-875): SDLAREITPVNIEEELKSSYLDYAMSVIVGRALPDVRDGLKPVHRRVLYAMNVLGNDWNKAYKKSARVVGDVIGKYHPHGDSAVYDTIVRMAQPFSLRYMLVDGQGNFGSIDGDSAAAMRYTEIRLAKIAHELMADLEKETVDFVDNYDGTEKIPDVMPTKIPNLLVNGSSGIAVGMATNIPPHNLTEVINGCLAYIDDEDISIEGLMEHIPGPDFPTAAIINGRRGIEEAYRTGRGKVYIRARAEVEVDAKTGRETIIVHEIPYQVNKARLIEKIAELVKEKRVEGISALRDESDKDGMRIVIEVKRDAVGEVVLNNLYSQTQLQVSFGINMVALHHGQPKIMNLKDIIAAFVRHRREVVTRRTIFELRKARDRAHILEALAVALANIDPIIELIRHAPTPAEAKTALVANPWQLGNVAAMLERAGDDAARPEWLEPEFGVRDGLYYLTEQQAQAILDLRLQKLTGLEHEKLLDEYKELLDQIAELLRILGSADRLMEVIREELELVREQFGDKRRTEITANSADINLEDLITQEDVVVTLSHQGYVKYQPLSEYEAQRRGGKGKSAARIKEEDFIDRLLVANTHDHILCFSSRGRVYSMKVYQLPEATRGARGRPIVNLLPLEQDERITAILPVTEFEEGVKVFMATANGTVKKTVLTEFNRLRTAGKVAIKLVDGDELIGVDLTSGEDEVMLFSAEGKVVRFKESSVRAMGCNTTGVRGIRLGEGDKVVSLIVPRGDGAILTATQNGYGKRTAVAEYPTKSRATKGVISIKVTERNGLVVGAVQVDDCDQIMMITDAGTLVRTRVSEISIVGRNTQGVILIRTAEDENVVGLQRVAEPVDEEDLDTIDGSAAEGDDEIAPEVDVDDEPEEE

[2] = target: T1, DNA gyrase subunit A (GyrA); test: DNA gyrase inhibition (supercoiling) assay; set-up: DNA gyrase; with GyrB
Target sequence in this assay (P0AES4 2-875): as above

SimC7 [3] = target: T2, SimC7 (Streptomyces antibioticus, UniProt G9VYV4); test: HPLC-UV ketoreductase assay ([…] NAD(P)H)
T2 construct: N-terminally His-tagged SimC7
T2 sequence (G9VYV4 1-284): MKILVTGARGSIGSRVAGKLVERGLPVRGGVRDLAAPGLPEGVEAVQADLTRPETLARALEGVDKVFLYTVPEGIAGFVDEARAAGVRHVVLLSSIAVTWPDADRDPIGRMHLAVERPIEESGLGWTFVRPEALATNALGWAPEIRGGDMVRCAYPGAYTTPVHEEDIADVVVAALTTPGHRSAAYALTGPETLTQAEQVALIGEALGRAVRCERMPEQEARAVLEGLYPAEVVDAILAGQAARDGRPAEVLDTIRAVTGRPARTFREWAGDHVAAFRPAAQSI

[4] = target: T1, DNA gyrase subunit A (GyrA); test: SPR to GyrA N-terminal domain (data not shown); DNA gyrase supercoiling inhibition; set-up: GyrA N-terminal domain (SPR); DNA gyrase (supercoiling); with GyrB (supercoiling assay)
From the text: SPR to GyrA N-terminal domain (data not shown); DNA gyrase supercoiling inhibition on DNA gyrase subunit A (GyrA) | SD8 bound to the GyrA N-terminal domain with a similar affinity to that reported previously
Target sequence in this assay (P0AES4 2-523): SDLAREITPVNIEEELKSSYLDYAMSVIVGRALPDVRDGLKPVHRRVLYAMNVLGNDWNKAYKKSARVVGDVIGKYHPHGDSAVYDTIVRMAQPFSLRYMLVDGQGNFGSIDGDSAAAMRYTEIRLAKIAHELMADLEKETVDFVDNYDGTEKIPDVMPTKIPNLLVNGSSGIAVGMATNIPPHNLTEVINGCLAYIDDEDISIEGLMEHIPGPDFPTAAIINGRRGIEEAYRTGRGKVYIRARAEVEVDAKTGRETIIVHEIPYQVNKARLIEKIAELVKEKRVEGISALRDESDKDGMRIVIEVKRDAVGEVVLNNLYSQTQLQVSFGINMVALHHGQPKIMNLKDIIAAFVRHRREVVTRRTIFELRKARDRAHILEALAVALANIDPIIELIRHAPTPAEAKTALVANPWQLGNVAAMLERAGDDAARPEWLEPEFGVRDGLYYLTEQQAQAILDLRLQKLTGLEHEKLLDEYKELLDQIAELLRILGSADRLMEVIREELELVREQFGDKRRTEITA

SimC7 [5] = target: T2, SimC7; test: HPLC-UV ketoreductase assay; also oxidised as substrate in the reverse reaction

For `CC(=O)O[C@@H]1[C@@H](C)O[C@@H](c2ccc3c(c2O)C(=O)[C@]24O[C@@]2(C3=O)[C@@]2(O)C(=O)C=C(C)C[C@@]2(O)C[C@@H]4O)C[C@H]1OC(=O)/C=C/C=C/C=C/C=C/C(=O)Nc1c(O)c2ccc(O)c(Cl)c2oc1=O` [7-oxo-SD8], the IC50 [1] was 50 to 100 µM.

With `COC(=O)/C=C/C=C/C=C/C=C/C(=O)Nc1c(O)c2ccc(O)c(Cl)c2oc1=O` [MGD8N2A] the IC50 [2] was 25 µM.

`NC(=O)C1=CN([C@@H]2O[C@H](COP(=O)(O)OP(=O)(O)OC[C@H]3O[C@@H](n4cnc5c(N)ncnc54)[C@H](O)[C@@H]3O)[C@@H](O)[C@H]2O)C=CC1` [NADH] was tested, and the “HPLC-UV ketoreductase assay (0.3 mM NAD(P)H)” value (SimC7 [3]) was “SimC7 was able to use NADH or NADPH for the reduction (Fig. 6b)”.

With `NC(=O)C1=CN([C@@H]2O[C@H](COP(=O)(O)OP(=O)(O)OC[C@H]3O[C@@H](n4cnc5c(N)ncnc54)[C@H](OP(=O)(O)O)[C@@H]3O)[C@@H](O)[C@H]2O)C=CC1` [NADPH] the “HPLC-UV ketoreductase assay (0.3 mM NAD(P)H)” value (SimC7 [3]) was “SimC7 was able to use NADH or NADPH for the reduction (Fig. 6b) but showed a preference for NADPH”.

`CC(=O)O[C@@H]1[C@@H](C)O[C@@H](c2ccc3c(c2O)[C@H](O)[C@]24O[C@@]2(C3=O)[C@@]2(O)C(=O)C=C(C)C[C@@]2(O)C[C@@H]4O)C[C@H]1OC(=O)/C=C/C=C/C=C/C=C/C(=O)Nc1c(O)c2ccc(O)c(Cl)c2oc1=O` [SD8, simocyclinone D8] gave an IC50 [4] of 0.1 to 0.5 µM.

In the case of `CC(=O)O[C@@H]1[C@@H](C)O[C@@H](c2ccc3c(c2O)[C@H](O)[C@]24O[C@@]2(C3=O)[C@@]2(O)C(=O)C=C(C)C[C@@]2(O)C[C@@H]4O)C[C@H]1OC(=O)/C=C/C=C/C=C/C=C/C(=O)Nc1c(O)c2ccc(O)c(Cl)c2oc1=O` [compound 2, simocyclinone D8], the “HPLC-UV ketoreductase assay; also oxidised as substrate in the reverse reaction” value (SimC7 [5]) is reported as “It was also possible to assay the reaction in the reverse direction, following the oxidation of SD8 to 7-oxo-SD8 by SimC7”.
